Data published in ChEMBL document CHEMBL6083177, “Targeting bromodomian-containing protein 8 (BRD8): An advanced tool to interrogate BRD8” (Eur J Med Chem, 2024).

How the values were obtained:
[1] = Inhibition of BRD8/BRD1 (unknown origin) by Alpha Screen assay
[2] = Inhibition BRD9/BRD1 (unknown origin) by Alpha Screen assay
[3] = Inhibition of BRD8/BRD1 (unknown origin)
[4] = Inhibition of BRD4/BRD1 (unknown origin)
[5] = target: T1, Bromodomain-containing protein 9 (Homo sapiens, UniProt Q9H8M2); test: Inhibition of BRD9 (unknown origin) by TR-FRET assay
T1 sequence (Q9H8M2 whole entry): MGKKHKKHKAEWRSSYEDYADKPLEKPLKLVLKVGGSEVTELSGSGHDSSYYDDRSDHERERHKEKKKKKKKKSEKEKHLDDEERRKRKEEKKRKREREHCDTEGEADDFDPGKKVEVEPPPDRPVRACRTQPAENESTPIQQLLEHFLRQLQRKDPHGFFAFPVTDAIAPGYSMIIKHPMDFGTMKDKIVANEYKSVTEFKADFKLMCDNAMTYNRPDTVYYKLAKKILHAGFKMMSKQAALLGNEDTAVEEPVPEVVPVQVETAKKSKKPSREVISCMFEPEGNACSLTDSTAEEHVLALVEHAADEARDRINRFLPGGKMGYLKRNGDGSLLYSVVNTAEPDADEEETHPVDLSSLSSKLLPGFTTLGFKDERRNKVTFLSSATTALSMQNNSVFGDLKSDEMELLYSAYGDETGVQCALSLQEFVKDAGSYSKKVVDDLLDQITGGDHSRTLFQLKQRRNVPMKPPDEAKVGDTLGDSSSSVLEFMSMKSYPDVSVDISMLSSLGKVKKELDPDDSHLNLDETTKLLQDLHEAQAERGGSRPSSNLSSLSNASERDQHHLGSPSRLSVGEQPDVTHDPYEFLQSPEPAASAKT

[6] = target: T2, Bromodomain-containing protein 1 (Homo sapiens, UniProt O95696); test: Inhibition of BRD1 (unknown origin)
T2 sequence (O95696 whole entry): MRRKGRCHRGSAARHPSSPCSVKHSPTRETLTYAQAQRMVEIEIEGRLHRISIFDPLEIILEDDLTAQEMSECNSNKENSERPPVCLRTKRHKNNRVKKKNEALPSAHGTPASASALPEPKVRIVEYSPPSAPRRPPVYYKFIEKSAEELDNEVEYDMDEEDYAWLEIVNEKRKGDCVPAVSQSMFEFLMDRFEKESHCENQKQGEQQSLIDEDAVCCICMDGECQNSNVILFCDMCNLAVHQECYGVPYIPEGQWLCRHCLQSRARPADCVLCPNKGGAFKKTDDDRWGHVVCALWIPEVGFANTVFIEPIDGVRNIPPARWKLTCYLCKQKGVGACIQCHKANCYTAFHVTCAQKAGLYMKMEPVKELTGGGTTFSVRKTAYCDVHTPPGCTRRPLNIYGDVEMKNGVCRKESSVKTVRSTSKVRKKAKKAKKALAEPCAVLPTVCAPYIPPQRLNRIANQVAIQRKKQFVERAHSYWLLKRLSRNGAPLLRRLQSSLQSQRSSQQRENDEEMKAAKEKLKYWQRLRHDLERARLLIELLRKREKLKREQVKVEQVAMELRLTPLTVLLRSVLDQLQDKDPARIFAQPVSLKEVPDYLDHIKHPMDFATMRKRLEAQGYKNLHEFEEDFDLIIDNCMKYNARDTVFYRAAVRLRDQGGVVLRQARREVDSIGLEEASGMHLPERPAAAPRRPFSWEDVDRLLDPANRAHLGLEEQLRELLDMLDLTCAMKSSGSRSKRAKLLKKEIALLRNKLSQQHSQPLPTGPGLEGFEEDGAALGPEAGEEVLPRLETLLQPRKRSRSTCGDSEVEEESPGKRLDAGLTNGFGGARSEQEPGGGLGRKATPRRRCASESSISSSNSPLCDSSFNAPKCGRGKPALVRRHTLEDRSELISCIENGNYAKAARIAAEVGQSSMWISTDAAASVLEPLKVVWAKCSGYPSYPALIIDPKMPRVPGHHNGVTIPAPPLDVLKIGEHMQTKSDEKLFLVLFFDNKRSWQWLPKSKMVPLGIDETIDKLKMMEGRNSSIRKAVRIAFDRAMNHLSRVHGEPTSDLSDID

| IC50 [1] [nM] | IC50 [2] [nM] | IC50 [3] [nM] | IC50 [4] [nM] | IC50 [5] [nM] | IC50 [6] [nM] | Structure (SMILES) |
| --- | --- | --- | --- | --- | --- | --- |
| 12 | 10000 | – | – | – | – | COc1cc(CN(C)C)cc(OC)c1-c1cn(C)c(=O)c2cc(F)ccc12 |
| – | – | 160 | > 10000 | 20 | – | COc1cc(-c2cn(C)c(=O)c3cc(F)ccc23)c(OC)cc1CN(C)C |
| – | – | 80 | > 10000 | > 10000 | – | COc1cc(CN(C)C)cc(OC)c1-c1cn(C)c(=O)c2cnccc12 |
| – | – | – | 7400 | < 10 | 490 | COc1cc(-c2cn(C)c(=O)c3cnccc23)c(OC)cc1CN1CC(N)C1 |
